Assay results from US10526318B2, “Oral cannabinoid receptor modulator formulations” (THE CLEVELAND CLINIC FOUNDATION, priority 2018, dated 2020).

Assays:
male beagle dogs = settings: intravenous, 5 mg/mL in 20% HPβCD, Dog1001 and Dog1002
Experimental: The mixture was vortexed then stirred at room temperature for 93 minutes forming a clear yellow solution at a concentration of 5 mg/mL for intravenous dosing. The intravenous dose solution was sterile-filtered using a Millex GV PVDF 0.22 μm filter (Millipore) prior to dosing.
Using clean technique, an aliquot of the 5 mg/mL Group 1 formulation (2.8 mL) was combined with 20% HPβCD (4.2 mL), and vortexed to form a clear yellow solution at a concentration of 2 mg/mL for intravenous dosing.
A total of fifteen male beagle dogs (plus one spare animal) were selected from the Test Facility's colony of non-naïve animals. The animals were assigned to the study based on acceptable health as determined by a Test Facility veterinarian following a pre-study health status check. The pre-study health status check included a physical exam, serum chemistry and hematology evaluations. The animals were placed into five groups of three animals per group. All animals were fasted overnight prior to dose administration.
Each animal in Group 1 received the prepared test article as a 30-60 second intravenous injection by way of a temporary percutaneous catheter placed in a peripheral vein. Immediately after each intravenous dose, the catheter was flushed with 3 mL of saline prior to removal. […]

[1] = Microcentrifuge dissolution test, second round of SDD testing; type: physicochemical; settings: 400 μgA/mL in 0.5 wt % SIF in PBS, pH 6.5, 37° C.
Experimental: In the second round of testing, experiments were carried out using crystalline API (active pharmaceutical ingredient; MDA7), 10% MDA7 in HPMCAS-M SDD, 25% MDA7 in HPMCAS-M SDD, 25% MDA7 in HPMCAS-L SDD, and 25% MDA7:PVP VA64 SDD. The test conditions were 400 μgA/mL in 0.5 wt % SIF in PBS, pH 6.5, 37° C.

[2] = MDA7 GB/IB non-sink microcentrifuge dissolution test; type: physicochemical
Experimental: In the first round of testing, experiments were carried out using crystalline API, 25% MDA7: HPMCAS-H, 25% MDA7: Eudragit L100, 25/65/10%:HPMCAS-M:TPGS, 25/65/10% MDA7:PVP VA64:TPGS, and 40% MDA7: HPMCAS-M. The results of these experiments are shown in FIG. 1, and Table 1 below.

mice = settings: cited from earlier work

Structure (SMILES)	clinical effects observed following dosing (male beagle dogs)	AUC90 [1]	C90 [1] [µg/mL]	C1200 [1] [µg/mL]	Cmax90 [1] [ng/mL]	Ultra90 [1] [µg/mL]	Ultra1200 [1] [µg/mL]	AUC90 [2]	C90 [2] [µg/mL]	C1200 [2] [µg/mL]	Cmax90 [2] [ng/mL]	Ultra90 [2] [µg/mL]	Ultra1200 [2] [µg/mL]	effect on food intake (mice)
CC1(Cc2ccccc2)COc2cc(C(=O)N3CCCCC3)ccc21 (centres unmarked) [Crystalline API, 3-benzyl-3-methyl-2,3-dihydrobenzofuran-6-carboxylic acid-piperidine amide]	adverse clinical effects	2,010 min*μg/mL	24	28	27000	20	24	2,360 min*μg/mL	31	31	31000	31	31	–
Cc1c(C(=O)NN2CCCCC2)nn(-c2ccc(Cl)cc2Cl)c1-c1ccc(Cl)cc1 [SR141716A]	–	–	–	–	–	–	–	–	–	–	–	–	–	reduces food intake
